What was measured:
[1] = Oxygen content dissolved in saline under different pressure and temperature, with and without nanobubbles; type: physicochemical; conditions: FIG. 4A; 5° C. and 5 atm
From the text: Nanobubbles (triangles) are compared to control and macrobubbles (dots).

[2] = 1 atm, room temperature; cited from earlier work

O=O [oxygen]
oxygen content in saline without nanobubbles [1]: 200 ml of oxygen per L of saline | content of oxygen, previously published evidence [2]: 43 ml/liter

Reference: patent publication US20240148962A1, “INTRAVENOUS DELIVERY OF LARGE VOLUMES OF GAS WITH HIGHLY PRESSURIZED SUPERSATURATED SOLUTION” (Regents of the University of Minnesota, priority 2021, published 2024)
